In patent publication US20230117034A1, “PYRAZOLOTRIAZINES” (Bayer Aktiengesellschaft, priority 2019, published 2023):

Experiments:
[1] = target: T1, CDK12 (nuclear staining in CAL-120 cells) (Homo sapiens, UniProt Q9NYV4); experiment: CDK12 nuclear protein level: immunofluorescence/high content analysis (CAL-120); format: cell-based; conditions: for DC50: CAL-120 cells, 24 h, immunofluorescence, 50% reduction of nuclear CDK12 staining intensity, median, read-out: CDK12 degradation IF, DC50- [mol/l] (median); for (IC50 CDK12 high ATP) to (Degradation DC50 CDK12) ratio: ratio of IC50 CDK12 high ATP kinase assay to DC50 CDK12 degradation (IF, CAL-120)
T1 construct: endogenous in cells; host or cells: CAL-120 human breast cancer cells (DSMZ ACC 459)
Method in brief: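 DC50 is the degrader concentration that halves nuclear CDK12 immunofluorescence relative to controls, measured by high-content imaging. CAL-120 cells were exposed to compound for 24 h at 37 °C before PFA fixation, and signal was normalized to DMSO and control wells.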

[2] = tested on: CAL-120, human breast adenocarcinoma cells; experiment: Proliferation assay CAL-120 (crystal violet, 4 days); format: cell-based; conditions: Homo sapiens, CAL-120, 96 h, CAL-120 cells, median, read-out: Prolif-CAL-120, IC50-[mol/l] (median)
Method in brief: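 IC50 from a 4-parameter fit of crystal violet absorbance (595 nm), scaled between a day-0 plate (0%) and untreated wells (100%). Cells grown in 10% FCS medium were exposed to test substances at 0.01-10 µmol/L for 4 days, 0.1% DMSO final.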

[3] = tested on: BRCA1 mRNA expression in MDA-MB-231 cells; experiment: qRT-PCR assay: BRCA1 mRNA expression in MDA-MB-231; format: cell-based, human; conditions: Homo sapiens, MDA-MB-231, Inhibition of BRCA1 mRNA expression in MDA-MB-231 cells; median; read-out: RTqPCR-MDA-MB-231, IC50, BRCA1 (median)
Method in brief: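 Seed 200,000 cells/well; 24 h later add compound, continuous exposure 24 h; extract RNA, 600 ng to cDNA; RT-qPCR, normalised to GAPDH.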

T1 sequence (Q9NYV4 whole entry): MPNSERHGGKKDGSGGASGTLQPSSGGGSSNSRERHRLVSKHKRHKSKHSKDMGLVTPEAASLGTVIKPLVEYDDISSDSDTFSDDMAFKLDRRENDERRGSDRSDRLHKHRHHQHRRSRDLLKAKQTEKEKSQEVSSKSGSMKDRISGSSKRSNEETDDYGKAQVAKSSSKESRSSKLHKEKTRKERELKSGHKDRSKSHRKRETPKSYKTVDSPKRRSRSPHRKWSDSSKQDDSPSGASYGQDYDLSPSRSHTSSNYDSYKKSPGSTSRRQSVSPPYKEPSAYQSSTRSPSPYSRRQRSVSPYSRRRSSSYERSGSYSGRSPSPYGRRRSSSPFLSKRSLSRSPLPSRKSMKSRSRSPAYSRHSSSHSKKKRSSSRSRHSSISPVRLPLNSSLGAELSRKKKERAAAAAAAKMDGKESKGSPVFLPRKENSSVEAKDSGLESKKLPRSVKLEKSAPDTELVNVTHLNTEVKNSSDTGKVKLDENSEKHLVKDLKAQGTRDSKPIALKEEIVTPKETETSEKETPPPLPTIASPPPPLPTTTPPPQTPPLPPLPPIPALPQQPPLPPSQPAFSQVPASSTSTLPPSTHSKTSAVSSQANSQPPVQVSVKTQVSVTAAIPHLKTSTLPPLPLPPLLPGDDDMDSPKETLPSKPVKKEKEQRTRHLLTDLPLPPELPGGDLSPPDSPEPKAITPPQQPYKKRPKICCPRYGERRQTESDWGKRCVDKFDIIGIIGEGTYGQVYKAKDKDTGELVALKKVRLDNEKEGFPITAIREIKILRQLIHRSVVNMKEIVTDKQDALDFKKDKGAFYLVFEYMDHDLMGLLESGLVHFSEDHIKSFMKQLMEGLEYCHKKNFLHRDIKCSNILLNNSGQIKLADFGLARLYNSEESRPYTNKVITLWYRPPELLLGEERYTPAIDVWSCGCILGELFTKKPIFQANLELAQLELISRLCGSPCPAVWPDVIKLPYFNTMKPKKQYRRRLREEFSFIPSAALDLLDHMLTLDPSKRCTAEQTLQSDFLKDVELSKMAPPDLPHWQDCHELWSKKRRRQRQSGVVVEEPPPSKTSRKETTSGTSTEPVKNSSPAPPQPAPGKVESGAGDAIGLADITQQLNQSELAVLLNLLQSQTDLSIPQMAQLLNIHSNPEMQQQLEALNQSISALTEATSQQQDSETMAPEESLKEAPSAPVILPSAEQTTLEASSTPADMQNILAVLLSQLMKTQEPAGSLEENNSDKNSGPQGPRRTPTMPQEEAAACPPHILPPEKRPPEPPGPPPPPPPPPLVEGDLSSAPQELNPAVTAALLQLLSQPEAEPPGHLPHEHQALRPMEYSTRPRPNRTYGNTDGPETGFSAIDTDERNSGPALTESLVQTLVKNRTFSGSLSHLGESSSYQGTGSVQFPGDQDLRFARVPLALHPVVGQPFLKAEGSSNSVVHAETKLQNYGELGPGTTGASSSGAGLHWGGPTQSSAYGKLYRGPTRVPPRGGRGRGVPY
T1 sequence (O75909 whole entry partner): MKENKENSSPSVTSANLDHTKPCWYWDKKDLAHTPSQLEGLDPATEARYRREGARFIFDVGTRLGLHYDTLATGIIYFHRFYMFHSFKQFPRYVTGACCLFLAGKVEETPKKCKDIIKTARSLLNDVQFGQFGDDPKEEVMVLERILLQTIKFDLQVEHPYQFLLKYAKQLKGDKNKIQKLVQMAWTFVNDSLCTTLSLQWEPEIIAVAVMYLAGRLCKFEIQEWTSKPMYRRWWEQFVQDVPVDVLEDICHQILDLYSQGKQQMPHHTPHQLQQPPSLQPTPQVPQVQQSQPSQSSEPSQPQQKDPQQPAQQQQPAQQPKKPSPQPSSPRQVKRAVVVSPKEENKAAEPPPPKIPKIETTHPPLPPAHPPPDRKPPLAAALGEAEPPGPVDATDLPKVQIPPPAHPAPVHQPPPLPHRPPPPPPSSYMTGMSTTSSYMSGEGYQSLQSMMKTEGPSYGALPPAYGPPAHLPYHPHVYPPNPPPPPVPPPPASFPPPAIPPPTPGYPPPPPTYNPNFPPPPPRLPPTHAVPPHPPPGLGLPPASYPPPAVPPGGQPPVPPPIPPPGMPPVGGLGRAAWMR

Compound | DC50 [1] | (IC50 CDK12 high ATP) to (Degradation DC50 CDK12) ratio [1] | IC50 [2] | IC50 [3]
CN1CCN(c2nc(NCc3nc4c(F)c(F)ccc4[nH]3)n3ncc(Cl)c3n2)CC1 [Example 358, 8-chloro-N-[(4,5-difluoro-1H-benzimidazol-2-yl)methyl]-2-(4-methylpiperazin-1-yl)pyrazolo[1,5-a][1,3,5]triazin-4-amine] | 5.33 nM | 2182 | 4.05 nM | 3.87 nM
CN(CC(C)(C)O)c1nc(NCc2nc3c(F)c(F)ccc3[nH]2)n2ncc(Cl)c2n1 [Example 359, 1-[(8-chloro-4-{[(4,5-difluoro-1H-benzimidazol-2-yl)methyl]amino}pyrazolo[1,5-a][1,3,5]triazin-2-yl)(methyl)amino]-2-methylpropan-2-ol] | 4.33 nM | 483 | 5.69 nM | 3.28 nM
Fc1ccc2[nH]c(CNc3nc(N4CC5CCC(C4)N5)nc4c(Cl)cnn34)nc2c1F.O=CO [Example 360, formic acid 8-chloro-2-(3,8-diazabicyclo[3.2.1]octan-3-yl)-N-[(4,5-difluoro-1H-benzimidazol-2-yl)methyl]pyrazolo[1,5-a][1,3,5]triazin-4-amine] | 6.45 nM | 622 | 2.24 nM | 1.03 nM
Fc1cccc2[nH]c(CNc3nc(N4CCOCC4)nc4c(Cl)cnn34)nc12 [Example 361, 8-chloro-N-[(4-fluoro-1H-benzimidazol-2-yl)methyl]-2-(morpholin-4-yl)pyrazolo[1,5-a][1,3,5]triazin-4-amine] | 6.4 nM | 224 | 6.73 nM | 9.02 nM
CN1CCN(c2nc(NCc3nc4c(F)cccc4[nH]3)n3ncc(Cl)c3n2)CC1.O=CO [Example 362, formic acid 8-chloro-N-[(4-fluoro-1H-benzimidazol-2-yl)methyl]-2-(4-methylpiperazin-1-yl)pyrazolo[1,5-a][1,3,5]triazin-4-amine] | 7.85 nM | 1673 | 8.15 nM | 26.4 nM
Fc1cccc2[nH]c(CNc3nc(N4CC5CCC(C4)N5)nc4c(Cl)cnn34)nc12 [Example 363, 8-chloro-2-(3,8-diazabicyclo[3.2.1]octan-3-yl)-N-[(4-fluoro-1H-benzimidazol-2-yl)methyl]pyrazolo[1,5-a][1,3,5]triazin-4-amine] | 11.9 nM | 279 | 7.26 nM | 22.5 nM
Fc1c(Cl)ccc2[nH]c(CNc3nc(N4CC5CCC(C4)N5)nc4c(C5CC5)cnn34)nc12 [Example 379, N-[(5-chloro-4-fluoro-1H-benzimidazol-2-yl)methyl]-8-cyclopropyl-2-(3,8-diazabicyclo[3.2.1]octan-3-yl)pyrazolo[1,5-a][1,3,5]triazin-4-amine] | 4.35 nM | 121 | 1.71 nM | 2.36 nM
Fc1c(Cl)ccc2[nH]c(CNc3nc(N4CC5CCC(C4)N5)nc4c(Br)cnn34)nc12 [Example 380, 8-bromo-N-[(5-chloro-4-fluoro-1H-benzimidazol-2-yl)methyl]-2-(3,8-diazabicyclo[3.2.1]octan-3-yl)pyrazolo[1,5-a][1,3,5]triazin-4-amine] | 2.32 nM | 438 | 1.72 nM | 1 nM
FC(F)(F)Oc1ccc2[nH]c(CNc3nc(N4C[C@H]5CC[C@@H](C4)N5)nc4c(Br)cnn34)nc2c1 [Example 382, 8-bromo-2-[(1R,5S)-3,8-diazabicyclo[3.2.1]octan-3-yl]-N-{[5-(trifluoromethoxy)-1H-benzimidazol-2-yl]methyl}pyrazolo[1,5-a][1,3,5]triazin-4-amine] | 79.7 nM | 10 | 12.4 nM | 28.8 nM
CN1C2CCC1CN(c1nc(NCc3nc4c(F)cccc4[nH]3)n3ncc(C(F)(F)F)c3n1)C2 [Example 384, N-[(4-fluoro-1H-benzimidazol-2-yl)methyl]-2-(8-methyl-3,8-diazabicyclo[3.2.1]octan-3-yl)-8-(trifluoromethyl)pyrazolo[1,5-a][1,3,5]triazin-4-amine] | 11 nM | 735 | 3.48 nM | 13.6 nM

The remaining lines, values ahead:

DC50 [1] | (IC50 CDK12 high ATP) to (Degradation DC50 CDK12) ratio [1] | IC50 [2] | IC50 [3] | Compound
9.52 nM | 190 | 31.3 nM | 27.1 nM | CN(CC(C)(C)O)c1nc(NCc2nc3c(F)cccc3[nH]2)n2ncc(Cl)c2n1 [Example 366, 1-[(8-chloro-4-{[(4-fluoro-1H-benzimidazol-2-yl)methyl]amino}pyrazolo[1,5-a][1,3,5]triazin-2-yl)(methyl)amino]-2-methylpropan-2-ol]
2.19 nM | 77 | 3.59 nM | 5.63 nM | Fc1c(Cl)ccc2[nH]c(CNc3nc(N4CCOCC4)nc4c(C5CC5)cnn34)nc12 [Example 370, N-[(5-chloro-4-fluoro-1H-benzimidazol-2-yl)methyl]-8-cyclopropyl-2-(morpholin-4-yl)pyrazolo[1,5-a][1,3,5]triazin-4-amine]
4.16 nM | 1263 | 3.9 nM | 7.36 nM | CN1CCN(c2nc(NCc3nc4c(F)c(Cl)ccc4[nH]3)n3ncc(C4CC4)c3n2)CC1 [Example 371, N-[(5-chloro-4-fluoro-1H-benzimidazol-2-yl)methyl]-8-cyclopropyl-2-(4-methylpiperazin-1-yl)pyrazolo[1,5-a][1,3,5]triazin-4-amine]
2.44 nM | 110 | 2.94 nM | 2.16 nM | Fc1c(Cl)ccc2[nH]c(CNc3nc(N4CCOCC4)nc4c(Br)cnn34)nc12 [Example 372, 8-bromo-N-[(5-chloro-4-fluoro-1H-benzimidazol-2-yl)methyl]-2-(morpholin-4-yl)pyrazolo[1,5-a][1,3,5]triazin-4-amine]
1.12 nM | 2719 | 1.93 nM | 1.27 nM | CN1CCN(c2nc(NCc3nc4c(F)c(Cl)ccc4[nH]3)n3ncc(Br)c3n2)CC1 [Example 373, 8-bromo-N-[(5-chloro-4-fluoro-1H-benzimidazol-2-yl)methyl]-2-(4-methylpiperazin-1-yl)pyrazolo[1,5-a][1,3,5]triazin-4-amine]
1.81 nM | 85 | 2.8 nM | 2.6 nM | CN(CC(C)(C)O)c1nc(NCc2nc3c(F)c(Cl)ccc3[nH]2)n2ncc(Br)c2n1 [Example 374, 1-[(8-bromo-4-{[(5-chloro-4-fluoro-1H-benzimidazol-2-yl)methyl]amino}pyrazolo[1,5-a][1,3,5]triazin-2-yl)(methyl)amino]-2-methylpropan-2-ol]
9.13 nM | 31 | 25.9 nM | 31.6 nM | Fc1cccc(-c2nnc(CNc3nc(N4CCOCC4)nc4c(C(F)(F)F)cnn34)[nH]2)c1 [Example 385, N-{[5-(3-fluorophenyl)-4H-1,2,4-triazol-3-yl]methyl}-2-(morpholin-4-yl)-8-(trifluoromethyl)pyrazolo[1,5-a][1,3,5]triazin-4-amine]
9.83 nM | 12 | 12.5 nM | 9.16 nM | Fc1cc(F)cc(-c2nnc(CNc3nc(N4CCOCC4)nc4c(C(F)(F)F)cnn34)[nH]2)c1 [Example 386, N-{[5-(3,5-difluorophenyl)-4H-1,2,4-triazol-3-yl]methyl}-2-(morpholin-4-yl)-8-(trifluoromethyl)pyrazolo[1,5-a][1,3,5]triazin-4-amine]
3.83 nM | 61 | 4.95 nM | 5.56 nM | CN(CC(C)(C)O)c1nc(NCc2nc3c(F)c(Cl)ccc3[nH]2)n2ncc(C3CC3)c2n1 [Example 387, 1-[(4-{[(5-chloro-4-fluoro-1H-benzimidazol-2-yl)methyl]amino}-8-cyclopropylpyrazolo[1,5-a][1,3,5]triazin-2-yl)(methyl)amino]-2-methylpropan-2-ol]
10.4 nM | 655 | 22.5 nM | 40 nM | C[C@H]1CN(C)CCN1c1nc(NCc2nc3c(F)cccc3[nH]2)n2ncc(C(F)(F)F)c2n1 [Example 388, 2-[(2S)-2,4-dimethylpiperazin-1-yl]-N-[(4-fluoro-1H-benzimidazol-2-yl)methyl]-8-(trifluoromethyl)pyrazolo[1,5-a][1,3,5]triazin-4-amine]
